In one data set the test system is JNK/c-Jun. The experiment in a line: Western blot of JNK pathway activation in BCECs. In kind it is cell-based, bovine. To be noted: media without growth factors. As to the method: Cells were allowed to reach 80% confluency in 12-well plates. […] At various time points, plates were taken out of the incubator and kept on ice. Cell monolayers were first washed once with ice-cold PBS before lysis with 250 μl of Pierce RIPA buffer (ThermoFisher Scientific, Rockford, IL) or use 50 mM Tris-HCl (pH 7.6), 150 mM NaCl, 10% Glycerol, 1% NP-40 containing protease/Phosphatase inhibitor cocktail (100×) (Cell signaling, #5872). Lysates were collected and mixed with 4×Bolt LDS Sample Buffer (Novex, Carlsbad, CA) in the presence of Halt protease inhibitors and phosphatase inhibitor cocktail (ThermoFisher scientific, #NP0007). The samples were subjected to SDS-PAGE (Bolt 4-12% Bis-Tris Plus, Invitrogen) using Bolt MES SDS running buffer or NuPAGE 3-8% Tris-Acetate gel using Tris-Acetate SDS running buffer (Novex). HUVECs (passage 6-8) were plated in EBM-2 basal medium (Lonza) with 0.2% FBS. […] Equal amounts of protein lysates were analyzed by SDS-PAGE and blotted with the indicated antibodies. Proteins were transferred using Tris-Glycine buffer with 20% Methanol (Proteonomics grade) (Apex BioResearch Products). Membranes were first incubated with 5% milk in TBST, pH 7.6 (TEKnova, Hollister, CA), followed by blotting with primary and secondary antibodies. ECL anti-rabbit IgG, horseradish peroxidase linked whole antibody from donkey or sheep anti-mouse were obtained from GE Healthcare (UK limited). SuperSignal West Dura Extended Duration substrate was from ThermoFisher Scientific. In some cases, the same PVDF membranes were stripped by 8-min incubation in the Restore Plus Western Blot Stripping Buffer (ThermoFisher Scientific) to show total specific protein expression, followed by second stripping for β-actin expression.

Data set [1] deals with bovine choroidal microvascular endothelial cells (BCEC). The experiment in a line: BCEC proliferation assay. It counts as cell-based. As to the method:
Proliferation assays with BCECs and BRECs were performed. Log-phase growing BCECs or BRECs (passage <10) were trypsinized, re-suspended and seeded in 96-well plates (no coating) in low-glucose DMEM supplemented with 10% bovine calf serum, 2 mM glutamine, and antibiotics (growth medium), at a density of 1200-1500 cells per well in 200 μl volume. All reagents were added at the indicated final concentrations. […] Fluorescence was measured at 530 nm excitation wavelength and 590 nm emission wavelength. The experiments were repeated at least three times. […] On each 96-well plate, untreated and VEGF-treated (10/ng/ml) wells were included to monitor plate-to-plate variations. 20% methanol or 0.05% DMSO served as negative controls. 0.05% DMSO served as negative controls when Cas was tested in these cells. Human […] and human adult […] were split into Gelatin-coated 96 wells (2000 cells per well) in low glucose DMEM containing 10% FBS. 1200 cells/well was set up for proliferation assay in low glucose media containing FBS. […] HUVEC (p7-10) were grown on gelatin-coated plate until it reached 70-80% confluency. On the day of the assay, cells were dissociated with 0.05% trypsin, which was neutralized with 0.5% FBS-containing EBM. Cells were briefly spun and then re-suspended in 0.5% FBS-media. Cells were counted and plated in 96-well, 1000 cells/well. Triplicate wells were used for each treatment. Data were collected at day 3, and then cells were fixed in 4% paraformaldehyde for 15 min before adding crystal violet. Cell-covered areas were quantified after taking pictures by Image J software.

For data set [2], the target named is T1, α-mannosidase from Jack Bean (Canavalia ensiformis, UniProt C0HJB3).
T1 construct: purchased M7257
T1 sequence (C0HJB3 whole entry): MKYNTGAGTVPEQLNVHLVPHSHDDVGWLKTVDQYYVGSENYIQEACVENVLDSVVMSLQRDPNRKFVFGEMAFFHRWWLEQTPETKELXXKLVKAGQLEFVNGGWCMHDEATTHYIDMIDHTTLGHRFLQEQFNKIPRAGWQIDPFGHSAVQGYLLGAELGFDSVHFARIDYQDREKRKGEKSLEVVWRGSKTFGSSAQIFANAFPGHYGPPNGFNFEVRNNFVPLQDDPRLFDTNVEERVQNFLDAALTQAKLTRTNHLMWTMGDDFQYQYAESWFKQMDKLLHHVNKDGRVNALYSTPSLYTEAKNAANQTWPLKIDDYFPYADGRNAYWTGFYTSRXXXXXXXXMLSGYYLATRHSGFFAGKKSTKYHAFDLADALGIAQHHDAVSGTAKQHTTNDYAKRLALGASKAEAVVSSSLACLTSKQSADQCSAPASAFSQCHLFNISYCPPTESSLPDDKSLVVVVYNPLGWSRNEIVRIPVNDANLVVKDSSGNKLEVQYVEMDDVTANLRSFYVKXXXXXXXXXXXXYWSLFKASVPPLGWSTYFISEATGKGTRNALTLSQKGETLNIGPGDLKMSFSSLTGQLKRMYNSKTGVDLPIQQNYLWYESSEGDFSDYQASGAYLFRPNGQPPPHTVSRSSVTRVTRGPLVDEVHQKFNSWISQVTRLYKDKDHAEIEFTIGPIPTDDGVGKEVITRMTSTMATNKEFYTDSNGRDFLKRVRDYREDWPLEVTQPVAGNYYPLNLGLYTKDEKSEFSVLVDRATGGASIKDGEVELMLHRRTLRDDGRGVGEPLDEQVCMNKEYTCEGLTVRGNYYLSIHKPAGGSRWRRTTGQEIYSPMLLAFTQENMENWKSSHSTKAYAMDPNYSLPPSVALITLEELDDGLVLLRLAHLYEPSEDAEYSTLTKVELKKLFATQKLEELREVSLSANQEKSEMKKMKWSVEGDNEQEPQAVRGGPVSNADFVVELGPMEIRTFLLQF
In words: α-mannosidase activity assay. It counts as biochemical.
Description: a-mannosidase activity was measured using substrate p-nitrophenyl α-mannopyranoside (1 mM). Enzyme from Jack Bean ([MUT]) (final concentration of 0.077 U) was incubated at 37° C. in a final volume of 50 μl of 50 mM potassium phosphate buffer, pH 7.5. α-glucosidase was assayed with substrate p-nitrophenyl α-glucoside (7 mM). […] The incubation was stopped by addition of an equal volume of acid-based stop solution (R&D systems, 895032).

The test system of another data set is Calu6. The experiment in a line: Calu6 proliferation assay. It counts as cell-based, human. As to the method: (§1) Proliferation assays with fibroblasts were done in low-glucose DMEM containing 1% FBS, with or without 10 ng/ml bFGF, or 100 ng/ml human EGF and the assay was ended at day 3. ARPE-19 cells were gently lifted with 0.025% trypsin and plated in RtEGM media (Clonetics) containing 2% FBS, L-glutamine, human bFGF and GA-1000. Once cells were attached to plates, serum-free RtEGM media was used to maintain the cultures. For proliferation assays, 1500 human RPE cells were plated into 96-well plates in low-glucose DMEM containing 1% FBS. A673, U87MG, Calu6 and AML12 cells were grown until confluent and were then harvested and re-suspended in appropriate assay media. For proliferation assays, cells were plated at the density of 1000-2000 cells/well in low-glucose DMEM containing 5% FBS or otherwise stated. Bovine pituitary cells (pituitary folliculostellate cells) were isolated as previously described. For proliferation assays with human epidermal keratinocytes, human DMVECs and human dermal fibroblast cells, 1000 cells/well were plated in low-glucose DMEM containing 1% FBS with or without various growth factors. The assay was ended at day 3 for bovine pituitary cells and at day 4 for all the other cell types. […] Four days later, tumor cell growth was measured by the MTS assay (Promega, Madison, WI), a colorimetric assay that measures metabolic activity of viable cells. […]

The subject of a further data set is human keratinocytes. The experiment in a line: Human keratinocyte proliferation assay. In kind it is cell-based. As to the method: as §1
The test system of a further data set is BCEC. In words: BCEC transwell migration assay. To be noted: ManN at 40 uM. It counts as cell-based, bovine. As to the method: HUVECs (passage 6-8) were cultured and serum-starved as described in “Western Blots”. Ten thousand cells in 150 μl of EBM-2 medium were then added to the upper chamber of 8 μm pore size cell culture inserts (Falcon) coated with 0.1% gelatin. The lower compartment was filled with 600 μl EBM-2 medium containing various agents. The plates were incubated at 37° C. to allow migration. After 4 hrs, cells were fixed with 4% PFA for 20 min and then stained with crystal violet (Sigma-Aldrich) for 20 min at RT. Migrated cells on the bottom side of the insert membrane were quantified by counting whole area of the insert at 40× magnification. The experiments were carried out in triplicate and repeated three times. BCEC migration was set up similarly, except that wells were coated with FN, cells were suspended in 1% serum media and migration time was 18-24 hrs.

In the case of `O=C1N[C@@H]2[C@@H](O)[C@@H](O)[C@H](O)[C@@H](CO)N2C1=O` [Kif, Kifunensine, reference compound], in the data set on JNK/c-Jun, the “activation of JNK pathway (JNK and downstream c-Jun)” value was “able to activate the JNK pathway”. The “BCEC proliferation with N-glycosylation inhibitors” value in data set [1] (absence or presence of 5 ng/ml VEGF) is “stimulated in a dose-dependent fashion”.

Take `N[C@H](C=O)[C@@H](O)[C@H](O)[C@H](O)CO` [ManN, 2-Amino-2-deoxy-D-mannose]: the “concentration showing inhibitory activity” value in data set [2] stood at 400 µM. Besides, the “activation of JNK pathway (JNK and downstream c-Jun)” value in the data set with JNK/c-Jun was “significantly activated”. For the same molecule, the “growth of Calu6” value in the data set with Calu6 is “did not promote growth”. Further, in the data set on human keratinocytes (5 mM level of ManN), the “cellular toxicity, sensitivity among cell types” value was “least sensitive”. Also, the “proliferation of human keratinocytes” value in the data set on human keratinocytes (alone or in combination with growth factors) is on record as “no increases in proliferation”. In addition, the “dose range with significant stimulatory effects” value in data set [1] was in the range of 5 to 500 µM. Also, in data set [1] (5 ng/ml VEGF), the “additivity with VEGF in promoting BCEC proliferation” value is “additive with VEGF”. Also, in data set [1] (20 ng/ml bFGF), the “additivity with bFGF in promoting BCEC proliferation” value was “Additive effects”. In addition, the “fold increase in fluorescence units upon AlamarBlue addition” value in data set [1] (50 uM ManN and 5 ng/ml VEGF, compared to VEGF alone) is 2.5-3 fold. Besides, the “maximal fold increase in EC-covered surface” value in data set [1] (ManN at 50 uM alone, crystal violet, FIG. 1A) was ~6.5 fold. Besides, the “dependence of VEGFR2 mass decrease and BCEC proliferation stimulation on VEGFR2 signaling” value in data set [1] (experiments with VEGFR2 inhibitor axitinib) is recorded as “not dependent on VEGFR2 signaling”. For the same molecule, the “additivity between ManN and VEGF in glucose-free media” value in data set [1] (glucose-free media) was “abolished”. Also, the “concentration with significant cytotoxicity” value in data set [1] (glucose-free media, even in the presence of VEGF) is 4 µM. The “dose-response of effects on BCEC proliferation” value in data set [1] (with or without VEGF) was “bell-shaped dose-response curve, with inhibition at higher concentrations”. In addition, in the data set with BCEC, the “additivity with VEGF in promoting BCEC migration” value is given as “significant additivity with VEGF”.

For the origin of these results see patent US20230390315A1, “COMPOSITIONS AND METHODS FOR TREATING ISCHEMIC CONDITIONS” (The Regents of the University of California, priority 2020, published 2023).
